From patent US20250064741A1, “METHODS FOR ENHANCED NUCLEIC ACID DELIVERY” (CORNELL UNIVERSITY, priority 2021, published 2025)

Test system: mice
Test: Screening drugs with macrophage/monocyte depletion capability for enhanced mRNA delivery (Fluc expression, MC3-LNP)
Format: in vivo
Conditions: Fluc mRNA 0.2 mg/kg
Description: FIGS. 6A-6B. Luciferase expression of pretreated mice injected with MC3-LNP loaded with Fluc mRNA (0.2 mg/kg).
In this example, various small molecules or monoclonal antibodies with reported macrophage depletion capabilities were screened to evaluate the effectiveness to enhance mRNA delivery. Drugs used in this study include clodronate liposome (Lipo-Clodronate), anti-CD115, anti-CCR2, anti-Ly6C, anti-Gr-1 and zoledronate (10 μg, 50 μg and 100 μg).
FIG. 5 lists treatment methods studied in this example. […] In a different experiment, zoledronate was encapsulated in liposomes (formulated with DSPC and cholesterol) and delivered to the mouse at different dosage.

O=P(O)(O)C(O)(Cn1ccnc1)P(=O)(O)O [zoledronate]
mRNA delivery / Fluc expression of MC3-LNP in pretreated mice (10 μg of zoledronate): enhanced the mRNA delivery | Fluc expression of MC3-LNP in pretreated mice (high dose of zoledronate): decreased the Fluc expression
